Reference: US10464896B2, “Efflux-pump inhibitors and therapeutic uses thereof” (Basilea Pharmaceutica International AG, priority 2015, dated 2019)

These molecules were tested on E. coli ATCC25922 (assay: Antibacterial activity in combination with minocycline (growth inhibition)). Details: Escherichia coli, ATCC25922, compound at 25 μM; minocycline 0.25 μg/mL; OD625 23 h minus 1 h; read-out: residual growth of E. coli ATCC25922 (% of uninhibited control) with minocycline.
Assay type: cell-based
Protocol: Antibacterial activity in combination with minocycline or with linezolid
Inhibition of growth was measured with E. coli ATCC25922 and P. aeruginosa PAO1 in a 96-well plate format. Cation-adjusted Müller-Hinton broth (caMHB) was inoculated with an overnight culture and incubated at 37° C. on a shaker until OD625 reached 0.6 to 0.7. Density was adjusted to OD600=0.5 by addition of caMHB. 35 μL of the suspension were diluted to 35 mL with caMHB and supplemented with minocycline at the subinhibitory doses of 0.25 μg/mL for E. coli and 8 μg/mL for P. aeruginosa or with linezolid at the subinhibitory dose of 128 μg/mL for E. coli and P. aeruginosa. Each well contained 1 μL of test compound in 100 μL caMHB with minocycline or with linezolid.
Plates were incubated at 37° C. on a plate shaker. OD625 was measured at 1 h, 6 h, and at 23 h.
The difference between OD at 23 h and at 1 h was taken as measure for cell density and compared to controls without inhibitor (i.e. uninhibited control). Results were expressed as residual growth (% of uninhibited control). Enhancement of minocycline or linezolid activity caused reduced residual growth.

SMILES	activity at 25 µM [%]
C=CCOc1cc(CNCC2CCNC2)cc(OCc2ccc(Cl)cc2Br)c1 (centres unmarked) [Example 108]	≤ 10
C=CCOc1cc(CNCC2CCNCC2)cc(OCc2ccc(Cl)cc2Br)c1 [Example 109]	≤ 10
Clc1ccc(COc2cccc(CCCNCC3CNC3)c2)c(Br)c1 [Example 111]	≤ 10
Clc1ccc(COc2cccc(CCCNCC3CCNC3)c2)c(Br)c1 (centres unmarked) [Example 112]	≤ 10
Clc1ccc(COc2ccccc2CCCNCC2CNC2)c(Br)c1 [Example 113]	≤ 10
Clc1ccc(COc2ccccc2CCCNCC2CCNC2)c(Br)c1 (centres unmarked) [Example 114]	≤ 10
Clc1ccc(COc2ccc(CCCNCC3CNC3)cc2)c(Br)c1 [Example 116]	≤ 10
Clc1ccc(COc2ccc(CCCNCC3CCNC3)cc2)c(Br)c1 (centres unmarked) [Example 117]	≤ 10
O=C(NCc1ccccc1)c1cc(CNCC2CNC2)cc(OCc2ccc(Cl)cc2Br)c1 [Example 119, 3-[(azetidin-3-ylmethylamino)methyl]-N-benzyl-5-[(2-bromo-4-chloro-phenyl)methoxy]-benzamide]	≤ 10
Brc1ccc(/C=C/c2ccccc2)cc1OCCCNCC1CNC1 [Example 120]	≤ 10
Clc1ccc(COc2cccc(CCNCC3CNC3)c2)c(Br)c1 [Example 121]	≤ 10
Clc1ccc(COc2cccc(CCNCC3CCNC3)c2)c(Br)c1 (centres unmarked) [Example 122]	≤ 10
Clc1ccc(COc2ccccc2CCNCC2CCNC2)c(Br)c1 (centres unmarked) [Example 123]	≤ 10
Clc1ccc(COc2ccccc2CCNCC2CNC2)c(Br)c1 [Example 125]	≤ 10
Clc1ccc(OCc2ccc(Br)c(OCCCNCC3CNC3)c2)c(Br)c1 [Example 126]	≤ 10
O=Cc1cc(CNCC2CNC2)cc(OCc2ccc(Cl)cc2Br)c1 [Example 127]	≤ 10
OCc1cc(CNCC2CNC2)cc(OCc2ccc(Cl)cc2Br)c1 [Example 128]	≤ 10
CCOC(=O)/C=C/c1cc(CNCC2CNC2)cc(OCc2ccc(Cl)cc2Br)c1 [Example 129, Ethyl (E)-3-[3-[(azetidin-3-ylmethylamino)methyl]-5-[(2-bromo-4-chloro-phenyl)methoxy]phenyl]prop-2-enoate]	≤ 10
Clc1ccc(COc2cc(/C=C/c3ccco3)cc(CNCC3CNC3)c2)c(Br)c1 [Example 130, N-(azetidin-3-ylmethyl)-1-[3-[(2-bromo-4-chloro-phenyl)methoxy]-5-[(E)-2-(2-furyl)vinyl]phenyl]methanamine]	≤ 10
FC(F)(F)c1cc(Cl)ccc1COc1cccc(CNCC2CCNC2)c1 (centres unmarked) [Example 132]	≤ 10
Clc1ccc(CSc2ccc(CNCC3CNC3)cc2)c(Br)c1 [Example 133]	≤ 10
Clc1ccc(CSc2ccc(CNCC3CCNC3)cc2)c(Br)c1 (centres unmarked) [Example 134]	≤ 10

SMILES	activity at 25 µM [%]
Clc1ccc(CSc2cccc(CNCC3CCNC3)c2)c(Br)c1 (centres unmarked) [Example 136, 1-[3-[(2-bromo-4-chloro-phenyl)methylsulfanyl]phenyl]-N-(pyrrolidin-3-ylmethyl)methanamine]	≤ 10
Clc1ccc(/C=C/c2ccc(CNCC3CNC3)cc2)c(Br)c1 [Example 142]	≤ 10
Clc1ccc(/C=C/c2ccc(CNCC3CCNC3)cc2)c(Br)c1 (centres unmarked) [Example 147]	≤ 10
O=[N+]([O-])c1ccc(CNCC2CCNC2)cc1OCc1ccc(Cl)cc1Br (centres unmarked) [Example 148]	≤ 10
Clc1ccc(C#Cc2cccc(CNCC3CNC3)c2)c(Br)c1 [Example 149, N-(azetidin-3-ylmethyl)-1-[3-[2-(2-bromo-4-chlorophenyl)ethynyl]phenyl]methanamine]	≤ 10
Clc1ccc(C#Cc2cccc(CNCC3CCNC3)c2)c(Br)c1 (centres unmarked) [Example 150]	≤ 10
Clc1cc(/C=C/c2ccc(Cl)cc2Br)cc(CNCC2CCNC2)c1 (centres unmarked) [Example 157]	≤ 10
Clc1ccc(CNc2cccc(CNCC3CNC3)c2)c(Br)c1 [Example 158, 3-[(azetidin-3-ylmethylamino)methyl]-N-[(2-bromo-4-chloro-phenyl)methyl]aniline]	≤ 10
Clc1cc(/C=C/c2ccc(Cl)cc2Br)cc(CNCC2CNC2)c1 [Example 159]	≤ 10
CC(C)Oc1cc(CNCC2CCNC2)cc(OCc2ccc(Cl)cc2Br)c1 (centres unmarked) [Example 163]	≤ 10
Clc1ccc(/C=C/c2cccc(CCNCC3CCNC3)c2)c(Br)c1 (centres unmarked) [Example 164]	≤ 10
Clc1ccc(/C=C/c2cccc(CCNCC3CNC3)c2)c(Br)c1 [Example 165, N-(azetidin-3-ylmethyl)-2-[3-[(E)-2-(2-bromo-4-chloro-phenyl)vinyl]phenyl]ethanamine]	≤ 10
Clc1ccc(C=CCc2cccc(CNCC3CCNC3)c2)c(Br)c1 (centres unmarked) [Example 169]	≤ 10
N[C@@H]1CN[C@@H](CNCc2cccc(/C=C/c3ccc(Cl)cc3Br)c2)C1 [Example 171]	≤ 10
N[C@@H]1CN[C@@H](CNCc2cccc(OCc3ccc(Cl)cc3Br)c2)C1 [Example 172]	≤ 10
Clc1ccc(COCc2cccc(CNCC3CCNC3)c2)c(Br)c1 (centres unmarked) [Example 174]	≤ 10
N[C@@H]1CN[C@@H](CNCc2cc(Cl)cc(OCc3ccc(Cl)cc3Br)c2)C1 [Example 175]	≤ 10
Clc1ccc(COc2cccc(CNCC3CCNC3)c2)c(Cl)c1 (centres unmarked) [Example 176]	≤ 10
C=CCOc1cc(/C=C/c2ccc(Cl)cc2Br)cc(CNCC2CCNC2)c1 (centres unmarked) [Example 178]	≤ 10
C=CCOc1cc(/C=C/c2ccc(Cl)cc2Br)cc(CNCC2CNC2)c1 [Example 180]	≤ 10
Clc1ccc(/C=C/c2cc(CNCC3CCNC3)cc(OCc3ccccc3)c2)c(Br)c1 (centres unmarked) [Example 181]	≤ 10
CC(C)COc1cc(/C=C/c2ccc(Cl)cc2Br)cc(CNCC2CCNC2)c1 (centres unmarked) [Example 182]	≤ 10

SMILES	activity at 25 µM [%]
C=CCOc1cc(CNCC2CNC2)cc(CSc2ccc(Cl)cc2C(F)(F)F)c1 [Example 183]	≤ 10
C=CCOc1cc(CNCC2CCNC2)cc(CSc2ccc(Cl)cc2C(F)(F)F)c1 (centres unmarked) [Example 184]	≤ 10
Clc1ccc(/C=C/c2ccc(Cl)cc2OCCCNCC2CCNC2)c(Br)c1 (centres unmarked) [Example 185]	≤ 10
Clc1ccc(/C=C/c2cc(Cl)ccc2OCCCNCC2CCNC2)c(Br)c1 (centres unmarked) [Example 186]	≤ 10
Clc1ccc(/C=C/c2ccc(Cl)cc2OCCCNCC2CNC2)c(Br)c1 [Example 187]	≤ 10
Clc1cc(/C=C/c2ccc(Cl)cc2Br)cc(OCCCNCC2CNC2)c1 [Example 188]	≤ 10
Clc1cc(/C=C/c2ccc(Cl)cc2Br)cc(OCCCNCC2CCNC2)c1 (centres unmarked) [Example 189]	≤ 10
CC(C)COc1cc(/C=C/c2ccc(Cl)cc2Br)cc(CNCC2CNC2)c1 [Example 190]	≤ 10
NCC1CCC(CNCc2cccc(/C=C/c3ccc(Cl)cc3Br)c2)N1 (centres unmarked) [Example 191]	≤ 10
NCC1CCC(CNCc2cc(Cl)cc(OCc3ccc(Cl)cc3Br)c2)N1 (centres unmarked) [Example 193]	≤ 10
C=CCOc1cc(CNCC2CCNC2)cc(CSc2ccc(Cl)cc2Br)c1 (centres unmarked) [Example 194]	≤ 10
C=CCOc1cc(CNCC2CNC2)cc(CSc2ccc(Cl)cc2Br)c1 [Example 196]	≤ 10
COC(=O)c1ccc(COc2cc(CNCC3CCNC3)cc(OCc3ccc(Cl)cc3Br)c2)cc1 (centres unmarked) [Example 197]	≤ 10
Clc1ccc(/C=C/c2cc(CNCC3CNC3)cc(OCc3ccccc3)c2)c(Br)c1 [Example 198]	≤ 10
Clc1ccc(/C=C/c2cc(Cl)ccc2OCCCNCC2CNC2)c(Br)c1 [Example 199]	≤ 10
Clc1ccc(/C=C/c2ccccc2OCCCNCC2CNC2)c(Br)c1 [Example 200]	≤ 10
Clc1ccc(/C=C/c2cccc(OCCCNCC3CNC3)c2)c(Br)c1 [Example 201, N-(azetidin-3-ylmethyl)-3-[3-[(E)-2-(2-bromo-4-chloro-phenyl)vinyl]phenoxy]propan-1-amine]	≤ 10
Clc1ccc(/C=C/c2cccc(OCCCNCC3CCNC3)c2)c(Br)c1 (centres unmarked) [Example 202]	≤ 10
Clc1ccc(/C=C/c2ccccc2OCCCNCC2CCNC2)c(Br)c1 (centres unmarked) [Example 203]	≤ 10
O=C(O)c1ccc(COc2cc(CNCC3CCNC3)cc(OCc3ccc(Cl)cc3Br)c2)cc1 (centres unmarked) [Example 205]	≤ 10
Ic1ccc(COc2cccc(CNCC3CCNC3)c2)cc1 (centres unmarked) [Example 207]	≤ 10

Same assay, conditions: Escherichia coli, ATCC25922, compound at 50 μM; minocycline 0.25 μg/mL; OD625 23 h minus 1 h; read-out: residual growth of E. coli ATCC25922 (% of uninhibited control) with minocycline

SMILES	activity at 50 µM [%]
[O-][S+](Cc1ccc(Cl)cc1Br)c1cccc(CNCC2CCNC2)c1 (centres unmarked) [Example 137, 1-[3-[(2-bromo-4-chloro-phenyl)methylsulfinyl]phenyl]-N-(pyrrolidin-3-ylmethyl)methanamine]	≤ 50
O=S(=O)(Cc1ccc(Cl)cc1Br)c1ccc(CNCC2CNC2)cc1 [Example 138]	≤ 50
Ic1ccccc1COc1cccc(CNCC2CNC2)c1 [Example 195]	≤ 50
